The results in this text go back to patent US9522914B2, “Azole derivative” (TAISHO PHARMACEUTICAL CO., LTD, priority 2011, dated 2016).

For this experiment, the target named is Human V1b receptor (Homo sapiens (Human), UniProt P47901). In words: Binding Test for V1b Receptor ([3H]AVP, crude membrane preparation of 293FT cells). The settings on record: inhibition of [3H]AVP binding (0.4 to 1 nmol/L), room temperature, 60 minutes. The procedure: Binding Test for V1b Receptor
Chain of Human V1b receptor (P47901 whole entry): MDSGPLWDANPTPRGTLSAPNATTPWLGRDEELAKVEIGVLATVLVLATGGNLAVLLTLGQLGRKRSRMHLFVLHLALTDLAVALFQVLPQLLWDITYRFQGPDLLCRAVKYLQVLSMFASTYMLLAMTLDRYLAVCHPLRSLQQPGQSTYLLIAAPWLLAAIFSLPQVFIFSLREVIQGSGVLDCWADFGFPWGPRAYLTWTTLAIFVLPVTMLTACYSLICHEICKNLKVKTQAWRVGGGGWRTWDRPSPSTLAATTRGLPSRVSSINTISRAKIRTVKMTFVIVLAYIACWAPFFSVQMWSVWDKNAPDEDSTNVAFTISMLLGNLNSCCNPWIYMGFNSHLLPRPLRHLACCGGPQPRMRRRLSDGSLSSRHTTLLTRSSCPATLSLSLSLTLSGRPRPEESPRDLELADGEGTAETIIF
Human V1b receptor was transiently expressed in 293FT cells (Invitrogen). The cells were collected and then homogenated in a 15 mmol/L tris-hydrochloric acid buffer (pH 7.4 and containing 2 mmol/L magnesium chloride, 0.3 mmol/L ethylenediaminetetracetic acid, and 1 mmol/L glycol ether diaminetetraacetic acid). The resulting homogenate was centrifuged at 50,000×g at 4° C. for 20 minutes. The precipitate was resuspended in a 75 mmol/L tris-hydrochloric acid buffer (pH 7.4 and containing 12.5 mmol/L magnesium chloride, 0.3 mmol/L ethylenediaminetetracetic acid, 1 mmol/L glycol ether diaminetetraacetic acid, and 250 mmol/L sucrose) to give a crude membrane preparation, which was stored at −80° C. until the binding test was initiated. In the binding test, the crude membrane preparation was diluted with a 50 mmol/L tris-hydrochloric acid buffer (pH 7.4 and containing 10 mmol/L magnesium chloride and 0.1% bovine serum albumin) and mixed with each test compound and [^3H]AVP (final concentration: 0.4 to 1 nmol/L), followed by incubation at room temperature for 60 minutes. The test compound was serially diluted with DMSO so that it would have final concentrations of 0.01 nmol/L to 1 μmol/L at the time of mixing. After the incubation, the mixture was suction filtered through a GF/C filter that was preliminarily impregnated with 0.3% polyethyleneimine. The GF/C filter was dried and after adding a scintillator, the residual radioactivity on the filter was measured using TopCount (PerkinElmer Inc.). The radioactivity in the presence of unlabeled AVP at […] was defined as 0%, and the radioactivity in the absence of unlabeled AVP was defined as 100%. A dose-response curve was plotted from radio activities in the presence of a test compound at various concentrations, and the 50% inhibitory concentration (IC50 value) of the test compound was calculated.
`COc1cccc(-c2nc(-c3ccc(CCN4CCOCC4)cc3)cn2CC(=O)NC(C)C)n1` [Example A-29, 2-[2-(6-methoxypyridin-2-yl)-4-{4-[2-(morpholin-4-yl)ethyl]phenyl}-1H-imidazol-1-yl]-N-(propan-2-yl)acetamide] displayed an IC50 of 0.027 µM. As for `CC(C)NC(=O)Cn1cc(-c2ccc(CCN3CCOCC3)nc2)nc1-c1cccc(Cl)c1` [Example A-30, 2-[2-(3-chlorophenyl)-4-{6-[2-(morpholin-4-yl)ethyl]pyridin-3-yl}-1H-imidazol-1-yl]-N-(propan-2-yl)acetamide], the figure is 0.021 µM; as for `CCN(CC)CCc1ccc(-c2cn(CC(=O)NC(C)C)c(-c3ccc(F)c(OC)c3)n2)cc1` [Example A-31, 2-[4-{4-[2-(diethylamino)ethyl]phenyl}-2-(4-fluoro-3-methoxyphenyl)-1H-imidazol-1-yl]-N-(propan-2-yl)acetamide], 0.01 to 0.1 µM. `CCN(CCOC)CCc1ccc(-c2cn(CC(=O)NC(C)C)c(-c3ccc(F)c(OC)c3)n2)cc1` [Example A-32, 2-[4-(4-{2-[ethyl(2-methoxyethyl)amino]ethyl}phenyl)-2-(4-fluoro-3-methoxyphenyl)-1H-imidazol-1-yl]-N-(propan-2-yl)acetamide]: the IC50 fell in the range of 0.1 to 1 µM. To `CC(C)NC(=O)Cn1cc(-c2ccc(OCCN3CCCCC3)cc2)nc1-c1cccc(Cl)c1` [Example A-33, 2-[2-(3-chlorophenyl)-4-{4-[2-(piperidin-1-yl)ethoxy]phenyl}-1H-imidazol-1-yl]-N-(propan-2-yl)acetamide] belongs 0.1 to 1 µM. To `CC(C)NC(=O)Cn1cc(-c2cccc(OCCN3CCCCC3)c2)nc1-c1cccc(Cl)c1` [Example A-34, 2-[2-(3-chlorophenyl)-4-{3-[2-(piperidin-1-yl)ethoxy]phenyl}-1H-imidazol-1-yl]-N-(propan-2-yl)acetamide] belongs 0.1 to 1 µM; to `CC(C)NC(=O)Cn1cc(-c2cccc(OCCCN3CCCCC3)c2)nc1-c1cccc(Cl)c1` [Example A-35, 2-[2-(3-chlorophenyl)-4-{3-[3-(piperidin-1-yl)propoxy]phenyl}-1H-imidazol-1-yl]-N-(propan-2-yl)acetamide], 0.1 to 1 µM. `COc1cccc(-c2nc(-c3ccc(CCN4CCOCC4)cc3)c(C)n2CC(=O)NC(C)C)c1` [Example A-36, 2-[2-(3-methoxyphenyl)-5-methyl-4-{4-[2-(morpholin-4-yl)ethyl]phenyl}-1H-imidazol-1-yl]-N-(propan-2-yl)acetamide] showed an IC50 of 0.02 µM.

With `COc1cccc(-c2nc(-c3ccc(CCN4CCCCC4)cc3)cn2CC(=O)NC(C)C)c1` [Example A-37, 2-[2-(3-methoxyphenyl)-4-{4-[2-(piperidin-1-yl)ethyl]phenyl}-1H-imidazol-1-yl]-N-(propan-2-yl)acetamide], the half-inhibitory concentration (IC50) was in the range of 0.01 to 0.1 µM. As for `COc1cccc(-c2nc(-c3ccc(CCN4CCOCC4)cc3)cn2CC(=O)NC(C)C)c1` [Example A-38, 2-[2-(3-methoxyphenyl)-4-{4-[2-(morpholin-4-yl)ethyl]phenyl}-1H-imidazol-1-yl]-N-(propan-2-yl)acetamide], the figure is 0.01 µM; as for `CC(C)NC(=O)Cn1cc(-c2ccc(CCN3CCOCC3)cc2)nc1-c1ccc(F)c(Cl)c1` [Example A-39, 2-[2-(3-chloro-4-fluorophenyl)-4-{4-[2-(morpholin-4-yl)ethyl]phenyl}-1H-imidazol-1-yl]-N-(propan-2-yl)acetamide], 0.001 µM; as for `COc1cncc(-c2nc(-c3ccc(CCN4CCOCC4)cc3)cn2CC(=O)NC(C)C)c1` [Example A-40, 2-[2-(5-methoxypyridin-3-yl)-4-{4-[2-(morpholin-4-yl)ethyl]phenyl}-1H-imidazol-1-yl]-N-(propan-2-yl)acetamide], 0.01 to 0.1 µM.

In the case of `COc1cc(-c2nc(-c3ccc(CCN4CCOCC4)cc3)cn2CC(=O)NC(C)C)ccn1` [Example A-41, 2-[2-(2-methoxypyridin-4-yl)-4-{4-[2-(morpholin-4-yl)ethyl]phenyl}-1H-imidazol-1-yl]-N-(propan-2-yl)acetamide], the 50% inhibitory concentration (IC50) is 0.1 to 1 µM.

`COc1cccc(-c2nc(-c3ccc(CCN4C5CCC4COC5)cc3)cn2CC(=O)NC(C)C)c1` [Example A-42, 2-[2-(3-methoxyphenyl)-4-{4-[2-(3-oxa-8-azabicyclo[3.2.1]oct-8-yl)ethyl]phenyl}-1H-imidazol-1-yl]-N-(propan-2-yl)acetamide]: the half-inhibitory concentration (IC50) worked out at 0.0063 µM. As for `CC(C)NC(=O)Cn1cc(-c2ccc(CCN3CCOCC3)cc2F)nc1-c1cccc(Cl)c1` [Example A-43, 2-[2-(3-chlorophenyl)-4-{2-fluoro-4-[2-(morpholin-4-yl)ethyl]phenyl}-1H-imidazol-1-yl]-N-(propan-2-yl)acetamide], the figure is 0.00049 µM; as for `CC(C)NC(=O)Cn1cc(-c2ccc(CC(C)N3CCOCC3)cc2)nc1-c1cccc(Cl)c1` (stereo not drawn) [Example A-44, 2-[2-(3-chlorophenyl)-4-{4-[2-(morpholin-4-yl)propyl]phenyl}-1H-imidazol-1-yl]-N-(propan-2-yl)acetamide], 0.00016 µM.

As for `CC(C)NC(=O)Cn1cc(-n2ccc(CCN3CCOCC3)cc2=O)nc1-c1cccc(Cl)c1` [Example A-45, 2-[2-(3-chlorophenyl)-4-{4-[2-(morpholin-4-yl)ethyl]-2-oxopyridin-1(2H)-yl}-1H-imidazol-1-yl]-N-(propan-2-yl)acetamide], the IC50 amounted to 0.034 µM.

As for `CC(C)NC(=O)Cn1cc(N2CCN(CCN3CCOCC3)CC2=O)nc1-c1cccc(Cl)c1` [Example A-46, 2-[2-(3-chlorophenyl)-4-{4-[2-(morpholin-4-yl)ethyl]-2-oxopiperazin-1-yl}-1H-imidazol-1-yl]-N-(propan-2-yl)acetamide], the IC50 fell in the range of 0.1 to 1 µM. As for `CC(C)NC(=O)Cn1cc(C(=O)NC2CCC(N3CCOCC3)CC2)nc1-c1cccc(Cl)c1` (stereo not drawn) [Example A-47, 2-(3-chlorophenyl)-N-[4-(morpholin-4-yl)cyclohexyl]-1-[2-oxo-2-(propan-2-ylamino)ethyl]-1H-imidazole-4-carboxamide], the figure is 0.1 to 1 µM. Molecule `CC(C)NC(=O)Cn1cc(C(=O)N(C)C2CCC(N3CCOCC3)CC2)nc1-c1cccc(Cl)c1` (stereo not drawn) [Example A-48, 2-(3-chlorophenyl)-N-methyl-N-[4-(morpholin-4-yl)cyclohexyl]-1-[2-oxo-2-(propan-2-ylamino)ethyl]-1H-imidazole-4-carboxamide] had an IC50 of 0.1 to 1 µM. The molecule `CC(C)NC(=O)Cn1cc(C(=O)N2CCC(CCN3CCOCC3)C2)nc1-c1cccc(Cl)c1` (stereo not drawn) [Example A-49, 2-[2-(3-chlorophenyl)-4-({3-[2-(morpholin-4-yl)ethyl]pyrrolidin-1-yl}carbonyl)-1H-imidazol-1-yl]-N-(propan-2-yl)acetamide] registered an IC50 of 0.1 to 1 µM. To `CC(C)NC(=O)Cn1nc(-c2ccc(CCN3C4CCC3COC4)cc2)nc1-c1cccc(Cl)c1` [Example B-01, 2-[5-(3-chlorophenyl)-3-{4-[2-(3-oxa-8-azabicyclo[3.2.1]oct-8-yl)ethyl]phenyl}-1H-1,2,4-triazol-1-yl]-N-(propan-2-yl)acetamide] belongs 0.0014 µM. As for `CC(C)NC(=O)Cn1nc(-c2ccc(CN3CCN(C)CC3)cc2)nc1-c1cccc(Cl)c1` [Example B-03, 2-[5-(3-chlorophenyl)-3-{4-[(4-methylpiperazin-1-yl)methyl]phenyl}-1H-1,2,4-triazol-1-yl]-N-(propan-2-yl)acetamide], the figure is 0.1 to 1 µM.

In turn, `CC(C)NC(=O)Cn1nc(-c2ccc(CCN3C4CCC3COC4)cn2)nc1-c1cccc(Cl)c1` [Example B-04, 2-[5-(3-chlorophenyl)-3-{5-[2-(3-oxa-8-azabicyclo[3.2.1]oct-8-yl)ethyl]pyridin-2-yl}-1H-1,2,4-triazol-1-yl]-N-(propan-2-yl)acetamide] showed an IC50 of 0.0074 µM. To `COc1cccc(-c2nc(-c3ccc(CCN4C5CCC4COC5)cn3)nn2CC(=O)NC(C)C)c1` [Example B-05, 2-[5-(3-methoxyphenyl)-3-{5-[2-(3-oxa-8-azabicyclo[3.2.1]oct-8-yl)ethyl]pyridin-2-yl}-1H-1,2,4-triazol-1-yl]-N-(propan-2-yl)acetamide] belongs 0.011 µM; to `COc1cc(-c2nc(-c3ccc(CCN4C5CCC4COC5)cn3)nn2CC(=O)NC(C)C)ccc1F` [Example B-06, 2-[5-(4-fluoro-3-methoxyphenyl)-3-{5-[2-(3-oxa-8-azabicyclo[3.2.1]oct-8-yl)ethyl]pyridin-2-yl}-1H-1,2,4-triazol-1-yl]-N-(propan-2-yl)acetamide], 0.0033 µM. `COc1cccc(-c2nc(-c3ccc(CCN4C5CCC4COC5)cn3)nn2CC(=O)NC(C)(C)C)c1` [Example B-07, N-tert-butyl-2-[5-(3-methoxyphenyl)-3-{5-[2-(3-oxa-8-azabicyclo[3.2.1]oct-8-yl)ethyl]pyridin-2-yl}-1H-1,2,4-triazol-1-yl]acetamide]: the IC50 was 0.0043 µM.
